According to patent US20220402950A1, “SUBSTITUTED BENZIMIDAZOLES AS PAD4 INHIBITORS” (BRISTOL-MYERS SQUIBB COMPANY, priority 2018, published 2022):

Biological target: human PAD4 (hPAD4) (Homo sapiens, UniProt Q9UM07)
Experiment: RFMS Human PAD4 Functional Assay
Assay type: biochemical
Settings: hPAD4 RFMS IC50, human PAD4, rapid-fire mass spectrum (RFMS) assay; 5 nM hPAD4, 250 μM BAEE
Summary of the method: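 RapidFire ESI-MS quantification, normalised to a modified-citrulline internal standard, after phenyl glyoxal (final 4 mM) derivatisation of the TCA-quenched reaction. The enzyme (10 nM) sat 30 min with compound (up to 50 μM final) before 500 μM BAEE (as added) started a 90 min, 37 °C reaction. Buffer: HEPES pH 7.5, 50 μM calcium, 5 μM TPEN.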

human PAD4 (hPAD4), sequence (Q9UM07 whole entry): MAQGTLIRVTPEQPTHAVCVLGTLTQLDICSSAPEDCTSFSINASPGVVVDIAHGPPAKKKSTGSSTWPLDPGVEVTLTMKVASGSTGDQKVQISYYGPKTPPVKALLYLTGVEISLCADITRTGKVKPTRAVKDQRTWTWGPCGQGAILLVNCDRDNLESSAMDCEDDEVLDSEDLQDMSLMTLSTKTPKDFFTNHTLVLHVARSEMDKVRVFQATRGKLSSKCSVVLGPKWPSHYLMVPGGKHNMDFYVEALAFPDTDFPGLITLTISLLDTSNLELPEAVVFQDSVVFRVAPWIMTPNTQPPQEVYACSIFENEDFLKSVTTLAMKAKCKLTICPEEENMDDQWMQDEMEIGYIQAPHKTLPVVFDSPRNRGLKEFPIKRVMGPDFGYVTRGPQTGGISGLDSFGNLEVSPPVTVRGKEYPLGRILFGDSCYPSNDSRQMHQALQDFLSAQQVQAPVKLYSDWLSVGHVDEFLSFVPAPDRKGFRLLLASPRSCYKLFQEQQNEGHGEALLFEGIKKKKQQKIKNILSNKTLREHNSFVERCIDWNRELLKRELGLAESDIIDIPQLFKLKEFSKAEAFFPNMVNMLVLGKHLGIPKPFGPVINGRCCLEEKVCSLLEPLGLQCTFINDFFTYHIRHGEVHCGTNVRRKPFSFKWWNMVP

IC50 [nM] | SMILES
43 | COc1cc(C(=O)N2C[C@H]3CC[C@@H]2[C@@H]3N)cc2nc(-c3cc4cccc(C5=CCN(C(C)=O)CC5)c4n3CC3CC3)n(C)c12 [Example 220, 1-(4-(2-(5-((1R,4R,7R)-7-amino-2-azabicyclo[2.2.1]heptane-2-carbonyl)-7-methoxy-1-methyl-1H-benzo[d]imidazol-2-yl)-1-(cyclopropylmethyl)-1H-indol-7-yl)-3,6-dihydropyridin-1(2H)-yl)ethan-1-one]
77 | COC(=O)N1CC=C(c2cccc3cc(-c4nc5cc(C(=O)N6C[C@H]7CC[C@@H]6[C@@H]7N)cc(OC)c5n4C)n(CC4CC4)c23)CC1 [Example 221, methyl 4-(2-(5-((1R,4R,7R)-7-amino-2-azabicyclo[2.2.1]heptane-2-carbonyl)-7-methoxy-1-methyl-1H-benzo[d]imidazol-2-yl)-1-(cyclopropylmethyl)-1H-indol-7-yl)-3,6-dihydropyridine-1(2H)-carboxylate]
94 | COc1cc(C(=O)N2C[C@H]3CC[C@@H]2[C@@H]3N)cc2nc(-c3cc4cccc(-c5cccc(C(O)CO)c5)c4n3CC3CC3)n(C)c12 (stereo partly drawn) [Example 222, ((1R,4R,7R)-7-amino-2-azabicyclo[2.2.1]heptan-2-yl)(2-(1-(cyclopropylmethyl)-7-(3-(1,2-dihydroxyethyl)phenyl)-1H-indol-2-yl)-7-methoxy-1-methyl-1H-benzo[d]imidazol-5-yl)methanone]
88 | COc1cc(C(=O)N2C[C@H]3CC[C@@H]2[C@@H]3N)cc2nc(-c3cc4cccc(-c5ccc(CNC(C)=O)c(CO)c5)c4n3CC3CC3)n(C)c12 [Example 223, N-(4-(2-(5-((1R,4R,7R)-7-amino-2-azabicyclo[2.2.1]heptane-2-carbonyl)-7-methoxy-1-methyl-1H-benzo[d]imidazol-2-yl)-1-(cyclopropylmethyl)-1H-indol-7-yl)-2-(hydroxymethyl)benzyl) acetamide]
78 | COc1cc(C(=O)N2C[C@H]3CC[C@@H]2[C@@H]3N)cc2nc(-c3cc4cccc(C5CCN(C(=O)C6CC67CC7)CC5)c4n3CC3CC3)n(C)c12 (stereo partly drawn) [Example 224, (4-(2-(5-((1R,4R,7R)-7-amino-2-azabicyclo[2.2.1]heptane-2-carbonyl)-7-methoxy-1-methyl-1H-benzo[d]imidazol-2-yl)-1-(cyclopropylmethyl)-1H-indol-7-yl)piperidin-1-yl)(spiro[2.2]pentan-1-yl)methanone]
112 | COc1cc(C(=O)N2C[C@H]3CC[C@@H]2[C@@H]3N)cc2nc(-c3cc4cccc(C5CCN(C(=O)C6CC6)CC5)c4n3CC3CC3)n(C)c12 [Example 225, (4-(2-(5-((1R,4R,7R)-7-amino-2-azabicyclo[2.2.1]heptane-2-carbonyl)-7-methoxy-1-methyl-1H-benzo[d]imidazol-2-yl)-1-(cyclopropylmethyl)-1H-indol-7-yl)piperidin-1-yl)(cyclopropyl)metha-none]
53 | COCC(=O)N1CCC(c2cccc3cc(-c4nc5cc(C(=O)N6C[C@H](N)C[C@@H](F)C6)cc(OC)c5n4C)n(CC4CC4)c23)CC1 [Example 226, 1-(4-(2-(5-((3R,5R)-3-amino-5-fluoropiperidine-1-carbonyl)-7-methoxy-1-methyl-1H-benzo[d]imidazol-2-yl)-1-(cyclopropylmethyl)-1H-indol-7-yl)piperidin-1-yl)-2-methoxyethan-1-one]
77 | COc1cc(C(=O)N2C[C@H](N)C[C@@H](F)C2)cc2nc(-c3cc4cccc(C5CCN(C(C)=O)CC5)c4n3CC3CC3)n(C)c12 [Example 227, 1-(4-(2-(5-((3R,5R)-3-amino-5-fluoropiperidine-1-carbonyl)-7-methoxy-1-methyl-1H-benzo[d]imidazol-2-yl)-1-(cyclopropylmethyl)-1H-indol-7-yl)piperidin-1-yl)ethan-1-one]
41 | COc1cc(C(=O)N2C[C@H]3CC[C@@H]2[C@@H]3N)cc2nc(-c3cc4cccc(C5CN(C(=O)Nc6ccccc6)C5)c4n3CC3CC3)n(C)c12 [Example 228, 3-(2-(5-((1R,4R,7R)-7-amino-2-azabicyclo[2.2.1]heptane-2-carbonyl)-7-methoxy-1-methyl-1H-benzo[d]imidazol-2-yl)-1-(cyclopropylmethyl)-1H-indol-7-yl)-N-phenylazetidine-1-carboxamide]
13 | COc1cc(C(=O)N2C[C@H]3CC[C@@H]2[C@@H]3N)cc2nc(-c3cc4cccc(C5CN(C(=O)Nc6ccc(F)cc6)C5)c4n3CC3CC3)n(C)c12 [Example 229, 3-(2-(5-((1R,4R,7R)-7-amino-2-azabicyclo[2.2.1]heptane-2-carbonyl)-7-methoxy-1-methyl-1H-benzo[d]imidazol-2-yl)-1-(cyclopropylmethyl)-1H-indol-7-yl)-N-(4-fluorophenyl)azetidine-1-carboxamide]
21 | COCC(=O)N1CCC(c2cccc3cc(-c4nc5cc(C(=O)N6C[C@H]7CC[C@@H]6[C@@H]7N)cc(OC)c5n4C)n(CC4CC4)c23)CC1 [Example 230, 1-(4-(2-(5-((1R,4R,7R)-7-amino-2-azabicyclo[2.2.1]heptane-2-carbonyl)-7-methoxy-1-methyl-1H-benzo[d]imidazol-2-yl)-1-(cyclopropylmethyl)-1H-indol-7-yl)piperidin-1-yl)-2-methoxyethan-1-one]
66 | COc1cc(C(=O)N2C[C@H]3CC[C@@H]2[C@@H]3N)cc2nc(-c3cc4cccc(C5CCN(C(=O)CC#N)CC5)c4n3CC3CC3)n(C)c12 [Example 231, 3-(4-(2-(5-((1R,4R,7R)-7-amino-2-azabicyclo[2.2.1]heptane-2-carbonyl)-7-methoxy-1-methyl-1H-benzo[d]imidazol-2-yl)-1-(cyclopropylmethyl)-1H-indol-7-yl)piperidin-1-yl)-3-oxopropanenitrile]
19 | COc1cc(C(=O)N2C[C@H]3CC[C@@H]2[C@@H]3N)cc2nc(-c3cc4cccc(C5CCN(C(=O)COCC(F)(F)F)CC5)c4n3CC3CC3)n(C)c12 [Example 232, 1-(4-(2-(5-((1R,4R,7R)-7-amino-2-azabicyclo[2.2.1]heptane-2-carbonyl)-7-methoxy-1-methyl-1H-benzo[d]imidazol-2-yl)-1-(cyclopropylmethyl)-1H-indol-7-yl)piperidin-1-yl)-2-(2,2,2-trifluoroethoxy)ethan-1-one]
63 | COc1cc(C(=O)N2C[C@H]3CC[C@@H]2[C@@H]3N)cc2nc(-c3cc4cccc(C5CCN(C(=O)C(OC)C6CC6)CC5)c4n3CC3CC3)n(C)c12 (stereo partly drawn) [Example 233, 1-(4-(2-(5-((1R,4R,7R)-7-amino-2-azabicyclo[2.2.1]heptane-2-carbonyl)-7-methoxy-1-methyl-1H-benzo[d]imidazol-2-yl)-1-(cyclopropylmethyl)-1H-indol-7-yl)piperidin-1-yl)-2-cyclopropyl-2-methoxyethan-1-one]
49 | CCOCC(=O)N1CCC(c2cccc3cc(-c4nc5cc(C(=O)N6C[C@H]7CC[C@@H]6[C@@H]7N)cc(OC)c5n4C)n(CC4CC4)c23)CC1 [Example 234, 1-(4-(2-(5-((1R,4R,7R)-7-amino-2-azabicyclo[2.2.1]heptane-2-carbonyl)-7-methoxy-1-methyl-1H-benzo[d]imidazol-2-yl)-1-(cyclopropylmethyl)-1H-indol-7-yl)piperidin-1-yl)-2-ethoxyethan-1-one]
58 | COc1cc(C(=O)N2C[C@H]3CC[C@@H]2[C@@H]3N)cc2nc(-c3cc4cccc(C5CCN(C(=O)COc6ccccc6)CC5)c4n3CC3CC3)n(C)c12 [Example 235, 1-(4-(2-(5-((1R,4R,7R)-7-amino-2-azabicyclo[2.2.1]heptane-2-carbonyl)-7-methoxy-1-methyl-1H-benzo[d]imidazol-2-yl)-1-(cyclopropylmethyl)-1H-indol-7-yl)piperidin-1-yl)-2-phenoxyethan-1-one]
57 | COCCC(=O)N1CCC(c2cccc3cc(-c4nc5cc(C(=O)N6C[C@H]7CC[C@@H]6[C@@H]7N)cc(OC)c5n4C)n(CC4CC4)c23)CC1 [Example 236, 1-(4-(2-(5-((1R,4R,7R)-7-amino-2-azabicyclo[2.2.1]heptane-2-carbonyl)-7-methoxy-1-methyl-1H-benzo[d]imidazol-2-yl)-1-(cyclopropylmethyl)-1H-indol-7-yl)piperidin-1-yl)-3-methoxypropan-1-one]
18 | COCCCC(=O)N1CCC(c2cccc3cc(-c4nc5cc(C(=O)N6C[C@H]7CC[C@@H]6[C@@H]7N)cc(OC)c5n4C)n(CC4CC4)c23)CC1 [Example 237, 1-(4-(2-(5-((1R,4R,7R)-7-amino-2-azabicyclo[2.2.1]heptane-2-carbonyl)-7-methoxy-1-methyl-1H-benzo[d]imidazol-2-yl)-1-(cyclopropylmethyl)-1H-indol-7-yl)piperidin-1-yl)-4-methoxybutan-1-one]
104 | COc1cc(C(=O)N2C[C@H]3CC[C@@H]2[C@@H]3N)cc2nc(-c3cc4cccc(C5CCN(C(=O)C(C)OC)CC5)c4n3CC3CC3)n(C)c12 (stereo partly drawn) [Example 238, 1-(4-(2-(5-((1R,4R,7R)-7-amino-2-azabicyclo[2.2.1]heptane-2-carbonyl)-7-methoxy-1-methyl-1H-benzo[d]imidazol-2-yl)-1-(cyclopropylmethyl)-1H-indol-7-yl)piperidin-1-yl)-2-methoxypropan-1-one]
119 | COc1cc(C(=O)N2C[C@H]3CC[C@@H]2[C@@H]3N)cc2nc(-c3cc4cccc(C5CCN(C(=O)COC(C)C)CC5)c4n3CC3CC3)n(C)c12 [Example 239, 1-(4-(2-(5-((1R,4R,7R)-7-amino-2-azabicyclo[2.2.1]heptane-2-carbonyl)-7-methoxy-1-methyl-1H-benzo[d]imidazol-2-yl)-1-(cyclopropylmethyl)-1H-indol-7-yl)piperidin-1-yl)-2-isopropoxyethan-1-one]
